What was measured:
Histone deacetylase 1 = Histone deacetylase 1 (Homo sapiens, UniProt Q13547); experiment: Inhibition of HDAC Enzyme Activity (In Vitro)
Experimental: (§1) In the HDAC1 assay, the test substance was treated at concentrations of 100, 1000, and 10000 nM, and in the HDAC6 assay, the test substance was treated at concentrations of 0.1, 1, 10, 100, and 1000 nM.

Histone deacetylase 6 = target: T1, Histone deacetylase 6 (Homo sapiens, UniProt Q9UBN7); experiment: Inhibition of HDAC Enzyme Activity (In Vitro)
T1 sequence (Q9UBN7 whole entry): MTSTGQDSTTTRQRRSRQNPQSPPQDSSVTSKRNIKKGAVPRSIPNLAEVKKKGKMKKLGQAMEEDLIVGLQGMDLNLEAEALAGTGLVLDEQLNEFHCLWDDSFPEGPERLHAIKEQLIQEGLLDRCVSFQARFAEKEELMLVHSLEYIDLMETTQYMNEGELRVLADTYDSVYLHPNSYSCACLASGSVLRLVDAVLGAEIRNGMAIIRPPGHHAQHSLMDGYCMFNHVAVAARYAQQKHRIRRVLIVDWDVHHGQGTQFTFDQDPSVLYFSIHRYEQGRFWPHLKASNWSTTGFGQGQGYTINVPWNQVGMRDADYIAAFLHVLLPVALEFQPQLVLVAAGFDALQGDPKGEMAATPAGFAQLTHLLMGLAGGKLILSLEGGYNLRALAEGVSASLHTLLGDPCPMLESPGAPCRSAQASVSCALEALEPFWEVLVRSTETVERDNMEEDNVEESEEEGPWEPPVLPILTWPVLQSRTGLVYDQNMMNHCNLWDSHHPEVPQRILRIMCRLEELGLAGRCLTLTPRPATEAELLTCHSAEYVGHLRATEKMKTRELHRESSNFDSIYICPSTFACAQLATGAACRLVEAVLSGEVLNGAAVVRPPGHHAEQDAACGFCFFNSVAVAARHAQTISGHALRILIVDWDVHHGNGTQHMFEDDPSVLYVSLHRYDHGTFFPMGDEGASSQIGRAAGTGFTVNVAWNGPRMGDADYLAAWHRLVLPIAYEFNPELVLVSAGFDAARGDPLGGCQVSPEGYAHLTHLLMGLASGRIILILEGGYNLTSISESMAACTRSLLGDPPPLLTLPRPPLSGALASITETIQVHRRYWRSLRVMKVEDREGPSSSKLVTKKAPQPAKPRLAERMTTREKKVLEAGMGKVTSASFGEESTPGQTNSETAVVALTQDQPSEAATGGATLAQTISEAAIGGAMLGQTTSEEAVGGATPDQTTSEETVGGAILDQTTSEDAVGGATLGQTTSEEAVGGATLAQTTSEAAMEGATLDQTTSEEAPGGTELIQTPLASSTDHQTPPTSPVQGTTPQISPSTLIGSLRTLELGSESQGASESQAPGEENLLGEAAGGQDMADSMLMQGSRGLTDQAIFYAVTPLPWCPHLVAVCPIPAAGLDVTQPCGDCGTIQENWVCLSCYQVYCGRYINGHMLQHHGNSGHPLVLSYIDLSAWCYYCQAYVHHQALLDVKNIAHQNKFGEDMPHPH
Experimental: as §1

Histone deacetylase 1, sequence (Q13547 whole entry): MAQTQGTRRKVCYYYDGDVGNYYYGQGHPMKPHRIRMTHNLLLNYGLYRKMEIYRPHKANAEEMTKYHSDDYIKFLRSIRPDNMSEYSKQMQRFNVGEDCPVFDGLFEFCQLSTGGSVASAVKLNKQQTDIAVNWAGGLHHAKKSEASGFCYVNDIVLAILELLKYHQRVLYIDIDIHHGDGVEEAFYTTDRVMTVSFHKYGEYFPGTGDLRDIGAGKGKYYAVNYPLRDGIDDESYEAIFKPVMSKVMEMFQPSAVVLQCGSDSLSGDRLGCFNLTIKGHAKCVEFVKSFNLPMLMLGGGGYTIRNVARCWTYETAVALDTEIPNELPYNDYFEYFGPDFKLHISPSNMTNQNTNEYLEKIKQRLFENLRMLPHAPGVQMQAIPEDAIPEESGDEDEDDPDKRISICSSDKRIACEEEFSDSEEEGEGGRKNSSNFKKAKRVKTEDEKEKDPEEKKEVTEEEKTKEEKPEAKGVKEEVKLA

Compound: CN1CCN(c2c(N(Cc3ccc(-c4nnc(C(F)F)o4)cc3F)c3cc(F)cc(-c4ccncc4)c3)c(=O)c2=O)CC1 [US20260028321, Compound 9]
- IC50 (Histone deacetylase 1): > 10 µM
- IC50 (Histone deacetylase 6): 0.054 µM
